# Experiments:
# Type in all cases: cell-based
# Cryptococcus neoformans = test: in vitro antifungal activity, minimum inhibitory concentration (MIC), Cryptococcus neoformans
# Excerpt: (§1) The antifungal activity of two exemplary phosphocholines prepared using the method of the invention, i.e., (1) synthetic 1,22-Bis-[2-(trimethylammonium)ethylphosphatyl] docosane obtained using the stepwise synthetic route and, (2) synthetic 1,22-Bis-[2-(trimethylammonium)ethyl-phosphatyl] docosane obtained using the one-pot one step route, as well as the antifungal activity of (3) the natural product isolated from Irbachia alata identified as 1,22-Bis-[2-(trimethylammonium)ethyl-phosphatyl] docosane (see International Application filed Oct. 8, 1993 was determined in vitro using three fungal cultures--Candida albicans (CA), Cryptococcus neoformans (CN), and Aspergillus fumigatus (CF). The method used to determine in vitro antifungal activity is described in McGinnis, M. R., Laboratory Handbook of Medical Mycology, Academic Press, New York, London, p 412-416 (1980); and Drouget, E.; Dupont, B.; Improvisi, L.; Vivian, M. A.; and Tortorano, A. M.; "Disc agar difusion and microplate automatized techniques for in vitro evaluation of antifungal agents on yeast and sporulated pathogenic fungi" in In Vitro and In Vivo Evaluation of Antifungal Agents, Eds. Iwata, K. and Vanden Bossche, H., Elsevier Science Publishers, New York, Oxford, p 303 (1986). The minimum inhibitory concentration (MIC) for each is summarized in Table I. Partial inhibition of the fungus of between 25% to 75% was also measured. A description of the partial inhibition measurement can be found in R. L. Stiller, et al, The Journal of Infectious Diseases, 147, No 6 (1983).
# Aspergillus fumigatus [1] = test: partial inhibition of the fungus, Aspergillus fumigatus; settings: in vitro, partial inhibition of between 25% to 75%
# Excerpt: as §1, with “The minimum inhibitory concentration (MIC) for each is summarized in Table I. Partial inhibition of the fungus of between 25% to 75% was also measured. A description of the partial inhibition measurement can be found in R. L. Stiller, et al, The Journal of Infectious Diseases, 147, No 6 (1983).” left out
# Candida albicans = test: in vitro antifungal activity, minimum inhibitory concentration (MIC), Candida albicans
# Excerpt: as §1
# Aspergillus fumigatus [2] = test: in vitro antifungal activity, minimum inhibitory concentration (MIC), Aspergillus fumigatus
# Excerpt: as §1
smiles,measurement,setting,value
"C[N+](C)(C)CCOP(=O)([O-])OCCCCCCCCCCCCCCCCCCCCCCOP(=O)([O-])OCC[N+](C)(C)C [Synthetic 1,22-Bis[2-trimethyl-ammonium)ethyl phosphatyl] do] [1,22-Bis [2-(trimethylammonium)ethylphosphatyl] docosane]",MIC CN,Cryptococcus neoformans,0.08 µg/mL
same,Partial inhibition AF,Aspergillus fumigatus [1],0.02 µg/mL
"C[N+](C)(C)CCOP(=O)([O-])OCCCCCCCCCCCCCCCCCCCCCCOP(=O)([O-])OCC[N+](C)(C)C [Synthetic 1,22-Bis[2-(trimethyl-ammonium)ethyl phosphatyl] d] [1,22-Bis [2-(trimethylammonium)ethylphosphatyl] docosane]",MIC CA,Candida albicans,0.8 µg/mL
same,MIC CN,Cryptococcus neoformans,< 0.1 µg/mL
same,MIC AF,Aspergillus fumigatus [2],< 0.1 µg/mL
same,Partial inhibition AF,Aspergillus fumigatus [1],0.1 µg/mL
"C[N+](C)(C)CCOP(=O)([O-])OCCCCCCCCCCCCCCCCCCCCCCOP(=O)([O-])OCC[N+](C)(C)C [Isolated Natural Product 1,22-Bis[2[(trimethyl ammonium)ethy] [1,22-Bis-[2-(trimethylammonium)ethyl-phosphatyl] docosane]",MIC CA,Candida albicans,1.25 µg/mL
same,MIC CN,Cryptococcus neoformans,< 0.04 µg/mL
same,MIC AF,Aspergillus fumigatus [2],0.08 µg/mL
"C[N+](C)(C)CCOP(=O)([O-])OCCCCCCCCCCCCCCCCCCCCCCOP(=O)([O-])OCC[N+](C)(C)C [1,22-Bis [2-(trimethylammonium)ethylphosphatyl] docosane]",MIC,Candida albicans,1.25 µg/mL
same,MIC,Aspergillus fumigatus [2],0.08 µg/mL

# — patent US5811568A, “Process for the preparation of mono- and bis(phosphocholine) derivatives which have antifungal activity” (Shaman Pharmaceuticals, Inc., priority 1994, dated 1998)
